Test results as given in patent US20060148732A1, “Inhibition of NF-kappaB by triterpene compositions” (priority 2000, published 2006).

Legend:
[1] = tested on: p65 subunit of NF-κB in Jurkat cells; test: Western blot of nuclear translocation of p65; format: cell-based, human; conditions: 2 μg/ml 16 hours, TNF 1 nM
Procedure: Western Blot Analysis. Cytoplasmic and nuclear extracts of Jurkat cells treated with monoterpene/triterpene glycoside G1 were used to study the degradation of IκB and nuclear translocation of the p65 subunit of NF-κB respectively. Then, 50 μg of the cytoplasmic or nuclear protein were resolved on a 9% SDS-polyacrylamide gel and electrotransferred onto a nitrocellulose membrane. The membranes were probed with rabbit anti-IκBα or rabbit anti-p65 antibody (Santa Cruz, Calif.) followed with anti-rabbit antibody conjugated to horseradish peroxidase (HRPO). Protein bands were detected by chemiluminescence (ECL, Amersham).

[2] = tested on: mitochondrial fraction of Jurkat cells; test: Cytochrome c release in a cell free system; format: biochemical, human; conditions: isolated mitochondria
Procedure: Isolation of the Submitochondrial Fraction. Jurkat cells (1.5-2.0×10^7) were suspended in 1 ml sucrose buffer (250 mM sucrose in 30 mM Tris-HCl pH 7.4) and transferred into an N2 cavitation chamber (PARR Instruments Company, Moline, Ill.). The cells were subjected to N2 cavitation (300 psi for 5 min) as per the manufacturer's instructions. Under these conditions most of the cell membrane was disrupted with no change in the mitochondrial respiratory activity. Next, DNA and the nuclear fraction were removed by centrifugation (1500 g, 30 sec). The supernatant was further centrifuged (16000 g, 10 min) and the pellet was used as the submitochondrial fraction.
To observe if monoterpene/triterpenoid saponins directly affected mitochondria to induce apoptosis, experiments were carried out using avicin G in a cell free system. Mitochondria were isolated from Jurkat cells by the N2 cavitation method.

NF-κB = target: T1, NF-κB (Homo sapiens, UniProt P19838+Q04206); test: In vitro NF-κB DNA binding (EMSA on extracts); format: biochemical
T1 construct: endogenous in cells; host or cells: Jurkat cells stimulated with TNF; nuclear extract
Procedure: (underline indicates NF-κB binding sites) for 15 min at 37° C. The incubation mixture included 3 μg of poly (dI:dC) in a binding buffer (25 mM HEPES, pH 7.9, 0.5 mM EDTA, 0.5 mM DTT, 1% NP-40, 5% glycerol, 50 mM NaCl). The DNA-protein complex was separated from the free oligonucleotide on a 7.5% polyacrylamide gel. The specificity of NF-κB-DNA binding was examined by competition with a double stranded mutated oligonucleotide, unlabeled oligonucleotide and by supershift of the band by anti-p65 antibody. The radioactive bands from dried gels were visualized on a PhosphoImager (Molecular Dynamics, Sunnyvale, Calif.) and quantitated using ImageQuant Software.
Monoterpene/triterpene glycoside G Inhibits NF-κB-DNA Binding. […] Therefore, the inventors analyzed the effect of monoterpene/triterpene glycoside G1 on the ability of active NF-κB to bind to DNA in a cell-free system. Nuclear extracts from TNF-stimulated cells were incubated with increasing concentrations of monoterpene/triterpene glycoside G1. […] Deoxycholate (DOC) is known to dissociate NF-κB from IκB, thereby making it available in an active nuclear form.

iNOS in RAW 264.7 cells = test: LPS-induced iNOS expression (western blot); format: cell-based; conditions: RAW264.7; 2 μg/ml 16 h; LPS 100 ng/ml
Procedure: Induction and Measurement of iNOS and COX-2. RAW 264.7 cells (0.5×10^6/ml) were plated in 100 mm dishes and treated with F094 or monoterpene/triterpene glycosides (2 μg/ml) for 16 h. Next, the cells were exposed to 100 ng/ml of LPS for 24 h. Cells were lysed in a buffer containing 50 mM Tris, pH 7.4, 100 mM NaCl, 0.5% NP-40, 10 μg/ml leupeptin, 5 μg/ml aprotinin, and 100 μM PMSF. 70 μg of cellular protein were then loaded on a 7.5% SDS-polyacrylamide gel and electrotransferred onto a nitrocellulose membrane. Levels of iNOS and COX-2 were analyzed by Western blot analysis using rabbit anti-iNOS (Santa Cruz) and goat anti-COX-2 antibodies respectively.

T1 sequence (Q04206 whole entry): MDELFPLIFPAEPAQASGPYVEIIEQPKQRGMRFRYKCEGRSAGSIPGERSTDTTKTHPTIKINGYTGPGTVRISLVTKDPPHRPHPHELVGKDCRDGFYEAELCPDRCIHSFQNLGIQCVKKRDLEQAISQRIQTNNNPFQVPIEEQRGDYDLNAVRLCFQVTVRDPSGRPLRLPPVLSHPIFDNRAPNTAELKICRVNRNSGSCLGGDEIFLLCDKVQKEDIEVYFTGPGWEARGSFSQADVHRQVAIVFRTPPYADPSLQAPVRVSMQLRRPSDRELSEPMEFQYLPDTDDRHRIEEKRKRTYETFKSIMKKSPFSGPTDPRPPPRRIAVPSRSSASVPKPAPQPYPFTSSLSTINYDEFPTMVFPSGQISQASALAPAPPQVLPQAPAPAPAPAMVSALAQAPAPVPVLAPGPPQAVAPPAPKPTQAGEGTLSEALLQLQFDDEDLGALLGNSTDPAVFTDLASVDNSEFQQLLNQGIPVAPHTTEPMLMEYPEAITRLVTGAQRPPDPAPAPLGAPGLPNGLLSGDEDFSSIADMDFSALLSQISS
T1 sequence (P19838 1-433 limits assumed): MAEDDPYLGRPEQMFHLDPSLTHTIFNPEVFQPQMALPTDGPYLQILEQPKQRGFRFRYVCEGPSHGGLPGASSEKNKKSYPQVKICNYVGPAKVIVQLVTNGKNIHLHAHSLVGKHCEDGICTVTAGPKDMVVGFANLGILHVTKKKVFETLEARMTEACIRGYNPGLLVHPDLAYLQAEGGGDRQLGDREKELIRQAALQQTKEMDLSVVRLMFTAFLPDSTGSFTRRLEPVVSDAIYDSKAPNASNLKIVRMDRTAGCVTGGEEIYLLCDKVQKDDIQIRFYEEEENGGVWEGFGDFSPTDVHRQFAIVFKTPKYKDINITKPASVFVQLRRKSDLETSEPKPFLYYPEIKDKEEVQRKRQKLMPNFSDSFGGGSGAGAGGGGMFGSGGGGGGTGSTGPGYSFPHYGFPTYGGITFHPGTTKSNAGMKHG

## C=C[C@](C)(O)CC/C=C(\C)C(=O)O[C@H]1[C@H](O)[C@@H](O)[C@H](O[C@@](C)(C=C)CC/C=C(\CO)C(=O)O[C@H]2C[C@]3(C(=O)O[C@@H]4O[C@H](CO)[C@@H](O)[C@H](O)[C@H]4O[C@@H]4O[C@@H](C)[C@H](O[C@@H]5O[C@@H](CO)[C@H](O)[C@H]5O)[C@@H](O[C@@H]5O[C@H](CO)[C@@H](O)[C@H](O)[C@H]5O)[C@H]4O)[C@H](O)C[C@]4(C)C(=CC[C@@H]5[C@@]6(C)CC[C@H](O[C@@H]7O[C@H](CO[C@@H]8O[C@H](C)[C@H](O)[C@H](O)[C@H]8O[C@@H]8OC[C@@H](O)[C@H](O)[C@H]8O)[C@@H](O)[C@H](O)[C@H]7NC(C)=O)C(C)(C)[C@@H]6CC[C@]54C)[C@@H]3CC2(C)C)O[C@@H]1C [Fraction G1]
[1]
  nuclear translocation of p65 subunit: slows down nuclear translocation of the p65 subunit considerably
[2]; 2 μg/ml
  peak of cytochrome c release: 5 to 10 min
  start of cytochrome c release: a minute
[2]; 10 min
  concentration achieving most of the cytochrome c release: 0.5 to 2.0 µg/mL
NF-κB; cytoplasmic extracts of treated cells
  DNA binding of DOC (0.8%) activated NF-κB: decreased DNA binding
NF-κB; nuclear extracts from TNF-stimulated cells, 30 min at 37° C.
  binding of NF-κB to DNA: inhibited the binding of NF-κB to DNA in a dose-dependent manner
iNOS in RAW 264.7 cells
  levels of LPS-induced iNOS: decreases the levels of LPS-induced iNOS and COX-2 sharply
